The results in this text go back to ChEMBL document CHEMBL1201862, “PubChem BioAssay data set” (2004).

Some test systems named below: A549; BT-549; CCRF-CEM; DU-145; HCT-116; HOP-92; KM12; MDA-MB-435; MDA-N; NCI-H23; OVCAR-3; OVCAR-4; OVCAR-8; SF-268; SF-295; SK-OV-3; SR; SW-620; T47D; UACC-62.
What all share (experiment): NCI tumour cell line growth inhibition, 48 h

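Step 1: Grow cells in 96-well plates. Step 2: Expose to compound for 48 hours at 5 concentrations. Step 3: Interpolate endpoints linearly; if unreached, use highest concentration. GI50 marks 50% less growth.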 Active and inactive are the calls of the source. Cut-off read from the data, not from the text of the source: active = GI50 up to about 1.1 µM and inactive = higher.

With `COc1cc(C2=N/C(=C/c3cccs3)C(=O)O2)cc(OC)c1OC`, the GI50 with A549, with BT-549, in the assay on CCRF-CEM, in the assay with DU-145, with HCT-116 and with HOP-92 was > 100 µM (inactive) in each case. Moreover, the GI50 in the assay on KM12, in the assay with MDA-MB-435, in the assay on MDA-N, in the assay with NCI-H23, with OVCAR-3 and in the assay on OVCAR-4 was > 100 µM (inactive) in each case. Also, the GI50 in the assay with OVCAR-8, in the assay with SF-268, in the assay on SF-295, in the assay on SK-OV-3, in the assay on SR and in the assay with SW-620 was > 100 µM (inactive) each time. For the same compound, the GI50 in the assay on T47D and with UACC-62 was > 100 µM (inactive) each time.
As for `O=C(NNC(=S)Nc1ccccc1)c1ccccc1Nc1ccccc1C(=O)NNC(=S)Nc1ccccc1`, the GI50 with A549 was 27.2 µM (inactive); in the assay on BT-549 it was 17.4 µM (inactive); in the assay on CCRF-CEM, 76.4 µM (inactive); in the assay with DU-145 it was 23.3 µM (inactive); in the assay on HCT-116 it was 17.7 µM (inactive); with HOP-92 it was 8.53 µM (inactive). Besides, the GI50 with KM12 was 42 µM (inactive); with MDA-MB-435, 20.9 µM (inactive); in the assay on MDA-N, 29.1 µM (inactive); in the assay on NCI-H23, 18.9 µM (inactive); with OVCAR-3, 19.6 µM (inactive); in the assay with OVCAR-4, 26.7 µM (inactive). In addition, the GI50 in the assay with OVCAR-8 is 20 µM (inactive); in the assay with SF-268 it was 17 µM (inactive); in the assay on SF-295 it was 20.9 µM (inactive); in the assay on SK-OV-3, 30.1 µM (inactive); in the assay on SR it was 43.6 µM (inactive); in the assay on SW-620 it was 40.9 µM (inactive). Further, the GI50 with T47D was 27.7 µM (inactive); in the assay with UACC-62 it was 13.1 µM (inactive).
In the case of `COc1cc(C2S/C(=C/c3ccccc3)C(=O)N2c2ccc(Cl)c(Cl)c2)cc(OC)c1OC` (stereo not given), the GI50 in the assay on A549 was 53.8 µM (inactive); with BT-549, 42.3 µM (inactive); in the assay with CCRF-CEM, 1.36 µM (inactive); with DU-145 it was 38.7 µM (inactive); in the assay with HCT-116, 19.3 µM (inactive); in the assay with HOP-92, 32.9 µM (inactive). Moreover, the GI50 is 18.1 µM (inactive) in the assay with KM12; 7.29 µM (inactive) in the assay with MDA-MB-435; 19.8 µM (inactive) in the assay on MDA-N; 48.9 µM (inactive) in the assay with NCI-H23; > 57.1 µM (inactive) in the assay with OVCAR-3; 60.8 µM (inactive) with OVCAR-4. Moreover, the GI50 in the assay with OVCAR-8 was > 72.3 µM (inactive); in the assay with SF-268 it was 11.7 µM (inactive); in the assay on SF-295, 15.8 µM (inactive); with SK-OV-3, > 91 µM (inactive); with SR it was 26 µM (inactive); with SW-620, 31 µM (inactive). Further, the GI50 in the assay on T47D is > 100 µM (inactive); with UACC-62 it was 0.78 µM (active).
With `C1CN2CCNCCN(CCN1)CC2`, the GI50 in the assay with A549 is > 100 µM (inactive); with BT-549, > 100 µM (inactive); in the assay on CCRF-CEM, 3.9 µM (inactive); with DU-145, > 100 µM (inactive); in the assay on HCT-116 it was > 100 µM (inactive); in the assay on HOP-92 it was > 100 µM (inactive). Moreover, the GI50 in the assay with KM12, with MDA-MB-435, in the assay on MDA-N, in the assay with NCI-H23, in the assay on OVCAR-3 and with OVCAR-4 was > 100 µM (inactive) throughout. Further, the GI50 in the assay on OVCAR-8, in the assay with SF-268, with SF-295, in the assay on SK-OV-3, in the assay with SR and in the assay with SW-620 was > 100 µM (inactive) each time. The GI50 in the assay with T47D and in the assay on UACC-62 was > 100 µM (inactive) throughout.
As to `COc1ccc(C(=O)/C=C/c2cc(O)c(O)c(F)c2F)c(OC)c1`, the GI50 was 16.1 µM (inactive) with A549; 19.2 µM (inactive) in the assay with BT-549; 3.92 µM (inactive) with CCRF-CEM; 23.9 µM (inactive) in the assay on DU-145; 6.95 µM (inactive) in the assay on HCT-116; 46.7 µM (inactive) with HOP-92. For the same compound, the GI50 in the assay with KM12 is 11.4 µM (inactive); in the assay with MDA-MB-435, 17.9 µM (inactive); in the assay on MDA-N, 12.7 µM (inactive); in the assay with NCI-H23 it was 13.8 µM (inactive); in the assay with OVCAR-3 it was 5.48 µM (inactive); in the assay with OVCAR-4 it was 19 µM (inactive). In addition, the GI50 in the assay on OVCAR-8 is 20.8 µM (inactive); with SF-268 it was 18.6 µM (inactive); in the assay with SF-295 it was 18.5 µM (inactive); in the assay with SK-OV-3, 21.5 µM (inactive); in the assay with SR it was 4.24 µM (inactive); in the assay with SW-620, 15.4 µM (inactive). In addition, the GI50 with T47D is 15.2 µM (inactive); in the assay with UACC-62, 15.1 µM (inactive).
In the case of `COC1CC(OC2C(C)OC(OC3C(C)OC(OC4C(C)OC(O[C@H]5CC[C@@]6(C)C(=CC[C@]7(O)[C@@H]6C[C@@H](O)[C@@]6(C)[C@]7(O)CC[C@@]6(O)C(C)=O)C5)CC4OC)CC3OC)CC2OC)OC(C)C1O` (stereo not given in full), the GI50 in the assay with A549, with BT-549, with CCRF-CEM, in the assay with DU-145, in the assay on HCT-116 and in the assay on HOP-92 was > 12.5 µM (inactive) in each case. Also, the GI50 in the assay on KM12, in the assay on MDA-MB-435, with MDA-N, with NCI-H23, in the assay on OVCAR-3 and in the assay with OVCAR-4 was > 12.5 µM (inactive) each time. The GI50 in the assay with OVCAR-8, with SF-268, with SF-295, in the assay with SK-OV-3, in the assay with SR and in the assay with SW-620 was > 12.5 µM (inactive) in each case. In addition, the GI50 with T47D and with UACC-62 was > 12.5 µM (inactive) throughout.
With `CCC1(CC)N=C(C(F)(F)F)c2cc(C(=O)C(F)(F)F)c3ccccc3c2N1`, the GI50 in the assay with A549 was 9.71 µM (inactive); in the assay on BT-549, 5.87 µM (inactive); in the assay with CCRF-CEM, 3.67 µM (inactive); in the assay on DU-145, 3.6 µM (inactive); in the assay with HCT-116 it was 3.44 µM (inactive); with HOP-92, 2.67 µM (inactive). The GI50 with KM12 was 3.99 µM (inactive); in the assay with MDA-MB-435, 3.58 µM (inactive); with MDA-N, 3.15 µM (inactive); in the assay with NCI-H23, 3.24 µM (inactive); in the assay with OVCAR-3 it was 2.73 µM (inactive); with OVCAR-4 it was 4.57 µM (inactive). In addition, the GI50 with OVCAR-8 was 3.66 µM (inactive); in the assay on SF-268, 8.43 µM (inactive); in the assay on SF-295 it was 3.14 µM (inactive); in the assay on SK-OV-3, 17.7 µM (inactive); in the assay on SR, 2.98 µM (inactive); in the assay with SW-620 it was 4.78 µM (inactive). Moreover, the values for the GI50 in the assay on T47D and in the assay with UACC-62 were 3.75 µM (inactive) and 3.36 µM (inactive), respectively.
Consider `COc1cccc2c3ccccc3c3nc[nH]c3c12`, for which the GI50 in the assay with A549 was 36.2 µM (inactive); with BT-549, > 71.1 µM (inactive); with CCRF-CEM, 12.4 µM (inactive); with DU-145 it was 46.9 µM (inactive); with HCT-116 it was 29.8 µM (inactive); in the assay on HOP-92, 27.3 µM (inactive). For the same compound, the GI50 was 18.7 µM (inactive) with KM12; 31.6 µM (inactive) in the assay with MDA-MB-435; 32.1 µM (inactive) in the assay with MDA-N; > 100 µM (inactive) in the assay with NCI-H23; > 100 µM (inactive) in the assay on OVCAR-3; > 88.7 µM (inactive) in the assay on OVCAR-4. Moreover, the GI50 in the assay with OVCAR-8 was > 100 µM (inactive); in the assay with SF-268, 62.1 µM (inactive); with SF-295, 16 µM (inactive); with SK-OV-3, > 62.1 µM (inactive); with SR it was 14.6 µM (inactive); in the assay with SW-620, 22.5 µM (inactive). The GI50 in the assay on T47D is > 50.4 µM (inactive); in the assay on UACC-62 it was 22.8 µM (inactive).
With `Cc1cc(N(CC(C)Br)CC(C)Br)ccc1/N=N/c1ccccc1C(=O)O` (stereo not given), the GI50 in the assay on A549 was 3.04 µM (inactive); with BT-549, 11.3 µM (inactive); with CCRF-CEM it was 19.6 µM (inactive); in the assay with DU-145 it was 7.67 µM (inactive); in the assay on HCT-116 it was 4.99 µM (inactive); with HOP-92, 2.24 µM (inactive). The GI50 in the assay with KM12 is 13.4 µM (inactive); with MDA-MB-435, 16.3 µM (inactive); in the assay with MDA-N it was 4.23 µM (inactive); with NCI-H23 it was 3.81 µM (inactive); in the assay on OVCAR-3 it was 16.9 µM (inactive); in the assay with OVCAR-4, 2.09 µM (inactive). The GI50 was 13.2 µM (inactive) with OVCAR-8; 7.73 µM (inactive) in the assay with SF-268; 0.948 µM (active) with SF-295; 13.1 µM (inactive) in the assay with SK-OV-3; 2.62 µM (inactive) in the assay on SR; 20 µM (inactive) in the assay with SW-620. Further, the GI50 is 0.592 µM (active) in the assay on T47D and 1.52 µM (inactive) with UACC-62.
Consider `CC(=O)O[C@H]1C(=O)[C@@]2(C)C(C(OC(=O)c3ccccc3)[C@]3(O)C[C@H](OC(=O)C(OC(=O)CCCC(=O)NCCCN(C)C)C(NC(=O)c4ccccc4)c4ccccc4)C(C)=C1C3(C)C)C1(OC(C)=O)COC1C[C@@H]2O` (stereo not given in full), for which the GI50 in the assay on A549 is < 0.01 µM (active); in the assay on BT-549, 0.0101 µM (active); in the assay with CCRF-CEM it was < 0.01 µM (active); in the assay with DU-145 it was 0.0105 µM (active); with HCT-116, < 0.01 µM (active); with HOP-92, 2.19 µM (inactive). Besides, the GI50 is < 0.01 µM (active) in the assay with KM12; < 0.01 µM (active) with MDA-MB-435; < 0.01 µM (active) in the assay with MDA-N; < 0.01 µM (active) in the assay with NCI-H23; < 0.01 µM (active) in the assay on OVCAR-3; 8.71 µM (inactive) with OVCAR-4. In addition, the GI50 is < 0.01 µM (active) in the assay on OVCAR-8; 0.0109 µM (active) in the assay with SF-268; 0.02 µM (active) in the assay with SF-295; 0.0141 µM (active) with SK-OV-3; < 0.01 µM (active) with SR; < 0.01 µM (active) in the assay with SW-620. The GI50 in the assay on T47D was 0.149 µM (active); in the assay with UACC-62, < 0.01 µM (active).
